≈ marks a conversion by molar mass, not a printed value. Where “and” joins values, the source holds several entries; their conditions need not be identical. Identical values can stand only once. Like-named read-outs stand apart in the source and are kept apart here.
Assays:
[1] = Cytotoxicity (IC50) on HDF; assay type: cell-based, human; details: human, human dermal fibroblasts (HDF), normal cells; Table 1, value in parentheses
Excerpt: Human umbilical vascular endothelial cells (HUVECs) were purchased from Cascade Biologics, Inc. (USA). HUVECs were maintained in Medium 200 (Cascade Biologics, Inc. USA) supplemented with 10% fetal bovine serum (FBS; Gibco BRL) and low serum growth supplement (LSGS; Cascade Biologics, Inc. USA). Human dermal fibroblasts (HDFs) were purchased from Cascade Biologics, Inc. (USA). HDFs were maintained in Medium 106 (Cascade Biologics, Inc. USA) supplemented with 10% FBS and low serum growth supplement (LSGS; Cascade Biologics, Inc. USA). The human colon adenocarcinoma cell lines HT-29 were purchased from the ATCC (Manassas, Va. USA). HT-29 were maintained in Dubecco's Modified Eagle Medium (DMEM; Gibco) supplemented with 10% FBS and 100 ng/ml penicillin and […] streptomycin (Life Technologies, Inc., Grand Island, N.Y., USA). For the proliferation assay of cell in log growth (G1), the cells were harvested at 60-80% of confluence. 100 μl of cell suspensions were dispensed onto a Falcon 96-well plates The densities were 6×10^3 cells/well in Medium 200 (for HUVECs), and 9×10^3 cells/well in Medium 106 (for HDFs), and 5×10^3 cells/well in DMEM (for HT-29) supplemented with 10% FBS. The cells were pre-incubated for 24 hours in an incubator (Humidified atmosphere, e.g., at 37° C., 5% CO2). 10 μl of toxicant of various concentrations were added into the culture medium of the plate. The cell cultures were incubated for 48 hours. 10 μl of the Cell Counting Kit-8 (CCK-8; DOJINDO) solution were added and the cell cultures incubated for 1˜4 hours in the incubator. The absorbance was measured at 450 nm, using a microplate reader with a reference wavelength at 600 nm or over.
(§1) Human tumor cell lines (MCF-7, CL1-5, HT-29, Caco-2), human umbilical vascular endothelial cells (HUVEC), and human dermal fibroblasts (HDF) were tested for sensitivity on Angelicae sinensis extracts, ligustilide, n-butylidenephthalide and its derivatives in vitro. The DBTRG-05MG, BCM, HL-60 and J5 cells were grown in RPMI-1640 medium containing 10% fetal calf serum and 100 ng/ml penicillin and […] streptomycin at 37° C. in a humidified atmosphere with 5% CO2. The G5T/VGH, RG2, Ni 8, SVEC and Balb/3T3 cells were cultured in DMEM with 10% fetal calf serum and 100 ng/ml penicillin and […] streptomycin at 37° C. in 5% CO2. Mycoplasma infection of the culture cells was excluded by PCR screening methods before each experiment.
(§2) The effects on cell viability after the treatments with different concentrations of the Angelicae sinensis extracts or the active components purified therefrom were evaluated by modified MTT assay in triplicate. Briefly, the cells (5×10^3) were incubated into 96-well plates containing 100 μl of a growth medium. The cells were permitted to adhere for 24 hours, then treated with 100 μl of the herbal extracts or the active components dissolved in the medium. The control contained DMSO of <0.02% (v/v). After 24, 48 and 72 h incubation, the drug-containing medium was replaced by 50 μl of fresh medium, and cells in each well were incubated in 50 μl of 400 μg/ml MTT for 6-8 h. The medium and MTT were removed later and 100 μl of DMSO was added to each well and to the control, to dissolve the soluble components. Absorbance at 550 nm of the solutions was measured with MRX Microtiter Plate Luminometer (DYNEX, USA). The absorbance of untreated cells was considered as 100%. […]

Caco-2 = assay: Cytotoxicity (IC50) on Caco-2; assay type: cell-based; details: Homo sapiens
Experimental: as §1
as §2, with “After 24, 48 and 72 h incubation, the drug-containing medium was replaced by 50 μl of fresh medium, and cells in each well were incubated in 50 μl of 400 μg/ml MTT for 6-8 h. The medium and MTT were removed later and 100 μl of DMSO was added to each well and to the control, to dissolve the soluble components.” left out

AT12 = assay: Cytotoxicity (IC50) on AT12; assay type: cell-based; details: Homo sapiens, read-out: Cytotoxicity (IC50) AT12
Experimental: (§3) The effects on cell viability after the treatments with different concentrations of the Angelicae sinensis extracts or the active components purified therefrom were evaluated by modified MTT assay in triplicate. Briefly, the cells (5×10^3) were incubated into 96-well plates containing 100 μl of a growth medium. The cells were permitted to adhere for 24 hours, then treated with 100 μl of the herbal extracts or the active components dissolved in the medium. The control contained DMSO of <0.02% (v/v). After 24, 48 and 72 h incubation, the drug-containing medium was replaced by 50 μl of fresh medium, and cells in each well were incubated in 50 μl of 400 μg/ml MTT for 6-8 h. The medium and MTT were removed later and 100 μl of DMSO was added to each well and to the control, to dissolve the soluble components. Absorbance at 550 nm of the solutions was measured with MRX Microtiter Plate Luminometer (DYNEX, USA). The absorbance of untreated cells was considered as 100%. To evaluate the effects of the extracts or the active components on cell growth rate of GBM cells, 5×10^3 exponentially growing cells were treated with different concentrations for 24, 48, or 72 h. The cytotoxicity of each test substance was determined as an IC50 value, which represents the drug concentration required to cause 50% inhibition. All experiments in this study were performed in triplicate.

HCT15 = assay: Cytotoxicity (IC50) on HCT15; assay type: cell-based; details: Homo sapiens, HCT-15
Experimental: as §3

HT-29 = assay: Cytotoxicity (IC50) on HT-29; assay type: cell-based; details: Homo sapiens
Excerpt: Human umbilical vascular endothelial cells (HUVECs) were purchased from Cascade Biologics, Inc. (USA). HUVECs were maintained in Medium 200 (Cascade Biologics, Inc. USA) supplemented with 10% fetal bovine serum (FBS; Gibco BRL) and low serum growth supplement (LSGS; Cascade Biologics, Inc. USA). Human dermal fibroblasts (HDFs) were purchased from Cascade Biologics, Inc. (USA). HDFs were maintained in Medium 106 (Cascade Biologics, Inc. USA) supplemented with 10% FBS and low serum growth supplement (LSGS; Cascade Biologics, Inc. USA). The human colon adenocarcinoma cell lines HT-29 were purchased from the ATCC (Manassas, Va. USA). HT-29 were maintained in Dubecco's Modified Eagle Medium (DMEM; Gibco) supplemented with 10% FBS and 100 ng/ml penicillin and […] streptomycin (Life Technologies, Inc., Grand Island, N.Y., USA). […] The absorbance was measured at 450 nm, using a microplate reader with a reference wavelength at 600 nm or over. […]
The effects on cell viability after the treatments with different concentrations of the Angelicae sinensis extracts or the active components purified therefrom were evaluated by modified MTT assay in triplicate. […] Absorbance at 550 nm of the solutions was measured with MRX Microtiter Plate Luminometer (DYNEX, USA). The absorbance of untreated cells was considered as 100%. […]

[2] = Cytotoxicity (IC50) on Balb/3T3; assay type: cell-based; details: mouse, Balb/3T3 cells
Experimental: as §1
as §2, with “After 24, 48 and 72 h incubation, the drug-containing medium was replaced by 50 μl of fresh medium, and cells in each well were incubated in 50 μl of 400 μg/ml MTT for 6-8 h. The medium and MTT were removed later and 100 μl of DMSO was added to each well and to the control, to dissolve the soluble components.” left out

brain tumor cell lines = assay: Cytotoxicity (IC50) on brain tumor cell lines, pooled statement; assay type: cell-based; details: read-out: IC50 to brain tumor cell lines
Experimental: as §3

MMP-2 = assay: RT-PCR of MMP-2 in HUVEC; assay type: cell-based, human
DBTRG-05MG = assay: Cell cycle analysis (PI staining, FACScan) in GBM cells; assay type: cell-based, human; details: 400 μM BP
Experimental: Brain tumor cell lines DBTRG-05MG and G5T/VGH were cultured in the growth medium with a diluent. For each test and control, DMSO was added, and the content is less than 0.02% (v/v). For the AS-C and BP treatment, 70 μg/ml of AS-C and 400 μM of BP were added, respectively. All were cultured for 48 hours. The analysis of cell cycle distribution was performed by DNA staining with propidium iodide (PI). Briefly, 2×10^6 adherent cells were detached by trypsinization. The detached cells and the floating dead cells were centrifuged and washed twice with 10 ml of cold 1×PBS (Life Technologies, Inc.). Supernatant was aspirated, cells were re-suspended in 0.8 ml of 1×PBS, and then 200 μl of PI solution (50 μg/ml PI+0.05 mg/ml RNase A; Sigma Chemical Co.) was added, and the cells were refrigerated at 4° C. overnight. The cells were incubated while protected from light at room temperature for at least 2 h before DNA analysis. After staining, DNA was detected and quantified on 20,000 total cells using a FACScan (Becton Dickinson Immunocytometry Systems, San Jose, Calif., USA) and CellQuest analysis software. The G0/G1 phases were gated in M1 (×2); G2/M phases were gated in M2 (×2); the total cells were gated in M3; S phase was M3−(M1(×2)+M2(×2)); Sub G1 phase (apoptosis cells) was gated in M4.

CCCC=C1OC(=O)c2ccccc21 [BP, n-Butylidenephthalide]
IC50 [1]: 1600 µM | IC50 (Caco-2; Table 1, value in parentheses): > 106 µM | IC50 (Caco-2; cancer cells, Table 1): > 20 µg/mL | IC50 (AT12): 10 µg/mL to 15 µg/mL and 53.2 µM to 79.8 µM | IC50 (HCT15; Table 2): 25 to 30 µg/mL | IC50 (HCT15; Table 2, value in parentheses): 133 to 160 µM | IC50 (HT-29; Table 2): 15 to 97 µg/mL | IC50 (HT-29; Table 2, value in parentheses): 79.8 to 516 µM | IC50 ([2]; Table 2): > 300 µg/mL | IC50 ([2]; Table 2, value in parentheses): > 1600 µM | IC50 (brain tumor cell lines): 1.4 to 10 µg/mL (≈ 7.44 to 53.1 µM) | Inhibition RT-PCR MMP-2 (MMP-2): 159.4 µg/mL | Inhibition RT-PCR MMP-2 (MMP-2; value in parentheses): (847.9 μM) | cell cycle accumulation at G0/G1 phase (DBTRG-05MG): > 90%

From patent US7455861B2, “Angelicae sinensis extracts useful for treatment of cancers” (priority 2004, dated 2008)
